# Patent US12655116B2, “Substituted isophthalic acid diamides” (Bayer Aktiengesellschaft, priority 2020, dated 2026)
# Assays:
# PHBPU [1] = assay: Post-emergence herbicidal action against PHBPU; format: in vivo, Pharbitis purpurea
# Method in brief: (§1)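 Herbicidal action is a visual percentage rating (0% = as untreated control, 100% = plants dead) made roughly 3 weeks after treatment. Plants were grown in sandy loam in the greenhouse and treated at the one-leaf stage, 2 to 3 weeks post-sowing. Treatment was a foliar spray of wettable-powder or emulsion-concentrate formulations at 600 to 800 l/ha water plus 0.2% wetting agent.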
# AMARE [2] = assay: Post-emergence herbicidal action against AMARE; format: in vivo, Amaranthus retroflexus; conditions: 20 g/ha, visual assessment about 3 weeks after treatment, 100% = plants have died, 0% = like control plants
# Method in brief: as §1
# ALOMY [3] = assay: Post-emergence herbicidal action against ALOMY; format: in vivo, Alopecurus myosuroides; conditions: dosage 20 g/ha, visual assessment about 3 weeks after treatment vs untreated controls
# Method in brief: as §1
# VIOTR [4] = assay: Pre-emergence herbicidal action against VIOTR; format: in vivo, Viola tricolor
# Method in brief: (§2)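 Sandy loam pots, seeds covered with soil, then surface-treated with WP or EC formulations at 600–800 l/ha water plus 0.2% wetting agent. Greenhouse, 3 weeks. Percent damage vs untreated controls.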
# ALOMY [5] = assay: Pre-emergence herbicidal action against ALOMY; format: in vivo, Alopecurus myosuroides
# Method in brief: as §2
# AMARE [6] = assay: Pre-emergence herbicidal action against AMARE; format: in vivo, Amaranthus retroflexus
# Method in brief: as §2
# MATIN [7] = assay: Post-emergence herbicidal action against MATIN; format: in vivo, Matricaria inodora; conditions: dosage 20 g/ha
# Method in brief: as §1
# DIGSA [8] = assay: Post-emergence herbicidal action against DIGSA; format: in vivo, Digitaria sanguinalis; conditions: 20 g/ha
# Method in brief: as §1
# POLCO = assay: Pre-emergence herbicidal action against POLCO; format: in vivo, Polygonum convolvulus; conditions: dosage 80 g/ha
# Method in brief: as §2
# ECHCG [9] = assay: Post-emergence herbicidal action against ECHCG; format: in vivo, Echinochloa crus-galli; conditions: dosage 20 g/ha
# Method in brief: as §1
# SETVI [10] = assay: Pre-emergence herbicidal action against SETVI; format: in vivo, Setaria viridis; conditions: dosage 80 g/ha
# Method in brief: as §2
# ECHCG [11] = assay: Pre-emergence herbicidal action against ECHCG; format: in vivo, Echinochloa crus-galli; conditions: 80 g/ha
# Method in brief: as §2
# DIGSA [12] = assay: Pre-emergence herbicidal action against DIGSA; format: in vivo, Digitaria sanguinalis
# Method in brief: as §2
# PHBPU [13] = assay: Pre-emergence herbicidal action against PHBPU; format: in vivo, Pharbitis purpurea
# Method in brief: as §2
# ABUTH [14] = assay: Post-emergence herbicidal action against ABUTH; format: in vivo, Abutilon theophrasti; conditions: visual assessment about 3 weeks after treatment vs untreated controls
# Method in brief: as §1
# LOLRI = assay: Pre-emergence herbicidal action against LOLRI; format: in vivo, Lolium rigidum; conditions: 80 g/ha
# Method in brief: as §2
# VERPE = assay: Pre-emergence herbicidal action against VERPE; format: in vivo, Veronica persica
# Method in brief: as §2
# ABUTH [15] = assay: Pre-emergence herbicidal action against ABUTH; format: in vivo, Abutilon theophrasti
# Method in brief: as §2
# MATIN [16] = assay: Pre-emergence herbicidal action against MATIN; format: in vivo, Matricaria inodora
# Method in brief: as §2
# AVEFA = assay: Pre-emergence herbicidal action against AVEFA; format: in vivo, Avena fatua
# Method in brief: as §2
# VIOTR [17] = assay: Post-emergence herbicidal action against VIOTR; format: in vivo, Viola tricolor; conditions: 20 g/ha
# Method in brief: as §1
# SETVI [18] = assay: Post-emergence herbicidal action against SETVI; format: in vivo, Setaria viridis; conditions: dosage 20 g/ha
# Method in brief: as §1
# [19] = 80 g/ha, pre-emergence, scored visually after 3 weeks vs untreated controls (100% = plants have died, 0% = like control plants)
# [20] = 20 g/ha, scored visually after 3 weeks vs untreated controls, 100% = plants have died, 0% = like control plants
# [21] = 80 g/ha, scored visually after 3 weeks vs untreated controls (100% = plants have died, 0% = like control plants)
# [22] = dosage 20 g/ha, scored visually after 3 weeks vs untreated controls, 100% = plants have died, 0% = like control plants
# [23] = 20 g/ha, scored visually after 3 weeks, 100% = plants have died, 0% = like control plants
compound,measurement,setting,value
CCCNC(=O)c1c(C(F)F)ccc(C(=O)Nc2nnnn2CC)c1Cl [Example 2-154],Post-emergence action against PHBPU in %,PHBPU [1]; dosage 5 g/ha,90%
same,Post-emergence action against PHBPU in %,PHBPU [1]; dosage 20 g/ha,90%
same,Post-emergence action at 20 g/ha against AMARE in %,AMARE [2],90%
same,Post-emergence action against ALOMY in %,ALOMY [3],80%
same,Pre-emergence action against VIOTR in %,VIOTR [4]; dosage 80 g/ha,100%
same,Pre-emergence action against ALOMY (herbicidal activity),ALOMY [5]; [19],100%
same,Pre-emergence action against AMARE in %,AMARE [6]; [20],100%
same,Pre-emergence action against AMARE in %,AMARE [6]; [21],100%
same,Post-emergence action against MATIN in %,MATIN [7],80%
same,Post-emergence action against DIGSA,DIGSA [8],90%
same,Pre-emergence action against POLCO in %,POLCO,90%
same,Post-emergence action against ECHCG in %,ECHCG [9],90%
same,Pre-emergence action against SETVI in %,SETVI [10],100%
same,Pre-emergence action against ECHCG in %,ECHCG [11],100%
same,Pre-emergence action against DIGSA in %,DIGSA [12]; dosage 20 g/ha,100%
same,Pre-emergence action against DIGSA in %,DIGSA [12]; dosage 80 g/ha,100%
same,Pre-emergence action against PHBPU in %,PHBPU [13]; dosage 20 g/ha,80%
same,Pre-emergence action against PHBPU in %,PHBPU [13]; dosage 80 g/ha,100%
same,Post-emergence action against ABUTH in %,ABUTH [14]; dosage 5 g/ha,80%
same,Post-emergence action against ABUTH in %,ABUTH [14]; dosage 20 g/ha,90%
same,Pre-emergence action against LOLRI in %,LOLRI,90%
same,Pre-emergence action against VERPE in %,VERPE; dosage 80 g/ha,100%
same,Pre-emergence action against ABUTH (herbicidal activity),ABUTH [15]; [21],100%
same,Pre-emergence action against ABUTH (herbicidal activity in percent),ABUTH [15]; [22],100%
same,Pre-emergence action against MATIN in %,MATIN [16]; dosage 20 g/ha,100%
same,Pre-emergence action against MATIN in %,MATIN [16]; dosage 80 g/ha,100%
CCn1nnnc1NC(=O)c1ccc(C(F)F)c(C(=O)NC(C)C)c1Cl [Example 2-155],pest or weed control at 20 g/ha,"PHBPU [1]; Ipomoea purpurea, 504 h, dosage 20 g/ha",80%
same,pest or weed control at 80 g/ha,"AVEFA; Avena fatua, 504 h, 80 g/ha, pre-emergence",90%
same,pest or weed control at 20 g/ha,"AMARE [2]; Amaranthus retroflexus, 504 h",90%
same,pest or weed control at 20 g/ha,"ALOMY [3]; Alopecurus myosuroides, 504 h",90%
same,pest or weed control at 20 g/ha,"VIOTR [4]; Viola tricolor, 504 h, dosage 20 g/ha",90%
same,pest or weed control at 80 g/ha,"VIOTR [4]; Viola tricolor, 504 h, dosage 80 g/ha",100%
same,pest or weed control at 80 g/ha,"ALOMY [5]; Alopecurus myosuroides, 504 h, 80 g/ha, pre-emergence, scored visually after 3 weeks vs untreated controls (100% = plants have died, 0% = like control plants)",100%
same,pest or weed control at 20 g/ha,"ALOMY [5]; Alopecurus myosuroides, pre-emergence, 504 h, 20 g/ha, scored visually after 3 weeks, 100% = plants have died, 0% = like control plants",80%
same,pest or weed control at 20 g/ha,"AMARE [6]; Amaranthus retroflexus, 504 h, 20 g/ha, scored visually after 3 weeks vs untreated controls, 100% = plants have died, 0% = like control plants",100%
same,pest or weed control at 80 g/ha,"AMARE [6]; Amaranthus retroflexus, 504 h, 80 g/ha, scored visually after 3 weeks vs untreated controls, 100% = plants have died, 0% = like control plants",100%
same,pest or weed control at 20 g/ha,"MATIN [7]; Tripleurospermum inodorum, 504 h",90%
same,pest or weed control at 80 g/ha,"POLCO; Fallopia convolvulus, 504 h",90%
same,pest or weed control at 80 g/ha,"SETVI [10]; Setaria viridis, 504 h",90%
same,pest or weed control at 80 g/ha,"ECHCG [11]; Echinochloa crus-galli, 504 h",100%
same,pest or weed control at 20 g/ha,"DIGSA [12]; Digitaria sanguinalis, 504 h, dosage 20 g/ha",100%
same,pest or weed control at 80 g/ha,"DIGSA [12]; Digitaria sanguinalis, 504 h, dosage 80 g/ha",100%
same,pest or weed control at 80 g/ha,"PHBPU [13]; Ipomoea purpurea, 504 h, dosage 80 g/ha",100%
same,pest or weed control at 5 g/ha,"ABUTH [14]; Abutilon theophrasti, 504 h, dosage 5 g/ha",80%
same,pest or weed control at 20 g/ha,"ABUTH [14]; Abutilon theophrasti, 504 h, dosage 20 g/ha",80%
same,pest or weed control at 80 g/ha,"LOLRI; Lolium rigidum, 504 h",80%
same,pest or weed control at 20 g/ha,"VERPE; Veronica persica, 504 h, dosage 20 g/ha",80%
same,pest or weed control at 80 g/ha,"VERPE; Veronica persica, 504 h, dosage 80 g/ha",100%
same,pest or weed control at 80 g/ha,"ABUTH [15]; Abutilon theophrasti, 504 h, 80 g/ha, scored visually after 3 weeks vs untreated controls (100% = plants have died, 0% = like control plants)",100%
same,pest or weed control at 20 g/ha,"ABUTH [15]; Abutilon theophrasti, 504 h, dosage 20 g/ha, scored visually after 3 weeks vs untreated controls, 100% = plants have died, 0% = like control plants, read-out: Pre-emergence action against ABUTH (herbicidal activity in percent)",100%
same,pest or weed control at 20 g/ha,"MATIN [16]; Tripleurospermum inodorum, 504 h, dosage 20 g/ha",100%
same,pest or weed control at 80 g/ha,"MATIN [16]; Tripleurospermum inodorum, 504 h, dosage 80 g/ha",100%
same,pest or weed control at 20 g/ha,"VIOTR [17]; Viola tricolor, 504 h",80%
CCc1c(C(=O)Nc2nnnn2CC)ccc(C(F)(F)F)c1C(=O)NCC(F)F [Example 2-276],Post-emergence action against PHBPU in %,PHBPU [1]; dosage 5 g/ha,80%
same,Post-emergence action against PHBPU in %,PHBPU [1]; dosage 20 g/ha,90%
same,Pre-emergence action against AVEFA,AVEFA; [23],80%
same,Pre-emergence action against AVEFA in %,"AVEFA; 80 g/ha, pre-emergence",90%
same,Post-emergence action at 20 g/ha against AMARE in %,AMARE [2],90%
same,Post-emergence action against ALOMY in %,ALOMY [3],80%
same,Pre-emergence action against VIOTR in %,VIOTR [4]; dosage 20 g/ha,100%
same,Pre-emergence action against VIOTR in %,VIOTR [4]; dosage 80 g/ha,100%
same,Pre-emergence action against ALOMY,ALOMY [5]; [23],90%
same,Pre-emergence action against ALOMY (herbicidal activity),ALOMY [5]; [19],90%
same,Pre-emergence action against AMARE in %,AMARE [6]; [20],100%
same,Pre-emergence action against AMARE in %,AMARE [6]; [21],100%
same,Post-emergence action against MATIN in %,MATIN [7],90%
same,Pre-emergence action against POLCO in %,POLCO,90%
same,Post-emergence action against ECHCG in %,ECHCG [9],90%
same,Pre-emergence action against SETVI in %,SETVI [10],100%
same,Pre-emergence action against ECHCG in %,ECHCG [11],80%
same,Pre-emergence action against PHBPU in %,PHBPU [13]; dosage 80 g/ha,90%
same,Post-emergence action against ABUTH in %,ABUTH [14]; dosage 5 g/ha,80%
same,Post-emergence action against ABUTH in %,ABUTH [14]; dosage 20 g/ha,80%
same,Pre-emergence action against LOLRI in %,LOLRI,80%
same,Post-emergence action against SETVI in %,SETVI [18],80%
same,Pre-emergence action against VERPE in %,VERPE; dosage 80 g/ha,80%
same,Pre-emergence action against ABUTH (herbicidal activity),ABUTH [15]; [21],100%
same,Pre-emergence action against ABUTH (herbicidal activity in percent),ABUTH [15]; [22],100%
same,Pre-emergence action against MATIN in %,MATIN [16]; dosage 20 g/ha,100%
same,Pre-emergence action against MATIN in %,MATIN [16]; dosage 80 g/ha,100%
same,Post-emergence action against VIOTR in %,VIOTR [17],80%
